Test results as given in ChEMBL document CHEMBL3576797, “Pyridopyrimidinone Derivatives as Potent and Selective c-Jun N-Terminal Kinase (JNK) Inhibitors” (ACS Med Chem Lett, 2015).

Tests used:
[1] = Half life in mouse liver microsomes; type: ADME
[2] = Oral bioavailability in mouse at 3 mg/kg by LC-MS/MS analysis; type: ADME, organism-based; conditions: in vivo
[3] = Half life in human liver microsomes; type: ADME
[4] = Volume of distribution in mouse at 0.5 mg/kg, iv by LC-MS/MS analysis; type: ADME, organism-based; conditions: in vivo
[5] = Clearance in mouse at 0.5 mg/kg, iv by LC-MS/MS analysis; type: ADME, organism-based; conditions: in vivo
[6] = AUC in mouse at 0.5 mg/kg, iv by LC-MS/MS analysis; type: ADME, organism-based; conditions: in vivo
[7] = Half life in mouse at 0.5 mg/kg, iv by LC-MS/MS analysis; type: ADME, organism-based; conditions: in vivo
[8] = Cmax in mouse at 0.5 mg/kg, iv by LC-MS/MS analysis; type: ADME, organism-based; parameters: dose 0.5 mg/kg, route intravenous; conditions: in vivo

| Compound | half-life [1] [min] | bioavailability [2] [%] | half-life [3] [min] | Vd [4] [L/kg] | clearance [5] [mL/min/kg] | AUC [6] [µM·h] | half-life [7] [min] | Cmax [8] [nM] |
| --- | --- | --- | --- | --- | --- | --- | --- | --- |
| CC(C)n1c(=O)ccc2cnc(N[C@H]3CC[C@H](O)CC3)nc21 | 23 | 10 | > 120 |  |  |  |  |  |
| CC(C)C(=O)N[C@H]1CC[C@H](Nc2ncc3ccc(=O)n(C(C)C)c3n2)CC1 | 19 | 66 | 44 | 1.3 | 33 | 0.7 | 30 | 1000 |
| CC(C)NC(=O)N[C@H]1CC[C@H](Nc2ncc3ccc(=O)n(C(C)C)c3n2)CC1 | 22 | 87 | 76 | 1.8 | 28 | 0.8 | 66 | 900 |
| CCNC(=O)N1CCC(Nc2ncc3ccc(=O)n(C(C)C)c3n2)CC1 | 14 | 43 | 65 | 1 | 33 | 0.7 | 24 | 1100 |

The next lines start with the values.

| half-life [1] [min] | bioavailability [2] [%] | half-life [3] [min] | Vd [4] [L/kg] | clearance [5] [mL/min/kg] | AUC [6] [µM·h] | half-life [7] [min] | Cmax [8] [nM] | Compound |
| --- | --- | --- | --- | --- | --- | --- | --- | --- |
| 17 | 100 | 46 | 1.9 | 72 | 0.3 | 18 | 600 | CCNC(=O)N[C@H]1CC[C@H](Nc2ncc3ccc(=O)n(C(C)C)c3n2)CC1 |
| 8 |  | 16 |  |  |  |  |  | CCNC(=O)N[C@H]1CC[C@@H](Nc2ncc3ccc(=O)n(C(C)C)c3n2)CC1 |
| 5 |  | 7 |  |  |  |  |  | CC(C)NC(=O)N[C@H]1CC[C@H](Nc2ncc3ccc(=O)n(C4CCCC4)c3n2)CC1 |
